Read-outs that look alike come from different tables or passages of the source.
System: Enterobacterales
Test: MIC, broth microdilution, CDC/FDA Antibiotic Resistance Isolate Bank (Example 7, Tables 8, 11, 12)
Format: cell-based

Measured: MIC

CN(C)c1cc(NC(=O)CNC(C)(C)C)c(O)c2c1C[C@H]1C[C@H]3[C@H](N(C)C)C(=O)C(C(N)=O)=C(O)[C@@]3(O)C(=O)C1=C2O [Tigecyeline]
2 µg/mL: Klebsiella pneumoniae, KUB No. 5584, AR Bank # 87 | Klebsiella pneumoniae, KUB No. 5603, AR Bank # 106 | Klebsiella pneumoniae, KUB No. 5612, AR Bank # 115 | Klebsiella pneumoniae, KUB No. 5635, AR Bank # 138 | Klebsiella pneumoniae, KUB No. 5640, AR Bank # 143 | Klebsiella pneumoniae, KUB No. 5649, AR Bank # 152 | Klebsiella pneumoniae, Klebsiella pneumoniae KUB No. 5811, AR Bank #506 | Klebsiella pneumoniae, Klebsiella pneumoniae KUB No. 5812, AR Bank #507 | Kluyvera ascorbata, KUB No. 5641, AR Bank # 144, read-out: MIC | Proteus mirabilis, KUB No. 5652, AR Bank # 155 | Proteus mirabilis, KUB No. 5656, AR Bank # 159 | Providencia rettgeri, KUB No. 5579, AR Bank # 82 | Serratia marcescens, Serratia marcescens KUB No. 5826, AR Bank #521
1 µg/mL: Klebsiella pneumoniae, KUB No. 5594, AR Bank # 97 | Klebsiella pneumoniae, KUB No. 5606, AR Bank # 109 | Klebsiella pneumoniae, KUB No. 5622, AR Bank # 125 | Klebsiella pneumoniae, KUB No. 5626, AR Bank # 129 | Klebsiella pneumoniae, KUB No. 5632, AR Bank # 135 | Klebsiella pneumoniae, KUB No. 5637, AR Bank # 140 | Klebsiella pneumoniae, KUB No. 5638, AR Bank # 141 | Klebsiella pneumoniae, KUB No. 5639, AR Bank # 142 | Klebsiella pneumoniae, KUB No. 5643, AR Bank # 146 | Klebsiella pneumoniae, KUB No. 5645, AR Bank # 148 | Klebsiella pneumoniae, KUB No. 5650, AR Bank # 153 | Klebsiella pneumoniae, KUB No. 5655, AR Bank # 158 | Klebsiella pneumoniae, Klebsiella pneumoniae KUB No. 5784, AR Bank #438 | Klebsiella pneumoniae, Klebsiella pneumoniae KUB No. 5797, AR Bank #453 | Klebsiella pneumoniae, Klebsiella pneumoniae KUB No. 5809, AR Bank #504 | Klebsiella pneumoniae, Klebsiella pneumoniae KUB No. 5827, AR Bank #522 | Klebsiella pneumoniae, Klebsiella pneumoniae KUB No. 5828, AR Bank #523 | Klebsiella pneumoniae, Klebsiella pneumoniae KUB No. 5829, AR Bank #524 | Klebsiella pneumoniae, Klebsiella pneumoniae KUB No. 5830, AR Bank #525 | Proteus mirabilis, KUB No. 5556, AR Bank# 59 | Proteus mirabilis, KUB No. 5653, AR Bank # 156 | Serratia marcescens, KUB No. 5596, AR Bank # 99 | Serratia marcescens, KUB No. 5618, AR Bank # 121 | Serratia marcescens, KUB No. 5619, AR Bank # 122 | Serratia marcescens, KUB No. 5620, AR Bank # 123 | Serratia marcescens, KUB No. 5621, AR Bank # 124 | Serratia marcescens, KUB No. 5627, AR Bank # 130 | Serratia marcescens, KUB No. 5628, AR Bank # 131 | Serratia marcescens, Serratia marcescens KUB No. 5825, AR Bank #520
4 µg/mL: Morganella morganii, KUB No. 5630, AR Bank # 133, read-out: MIC
0.5 µg/mL: Klebsiella pneumoniae, KUB No. 5576, AR Bank # 79 | Klebsiella pneumoniae, KUB No. 5595, AR Bank # 98 | Klebsiella pneumoniae, KUB No. 5609, AR Bank # 112 | Klebsiella pneumoniae, KUB No. 5610, AR Bank # 113 | Klebsiella pneumoniae, KUB No. 5614, AR Bank # 117 | Klebsiella pneumoniae, KUB No. 5617, AR Bank # 120 | Klebsiella pneumoniae, KUB No. 5623, AR Bank # 126 | Klebsiella pneumoniae, KUB No. 5636, AR Bank # 139 | Klebsiella pneumoniae, KUB No. 5642, AR Bank # 145 | Klebsiella pneumoniae, KUB No. 5657, AR Bank # 160 | Klebsiella pneumoniae, Klebsiella pneumoniae KUB No. 5810, AR Bank #505 | Morganella morganii, KUB No. 5554, AR Bank# 57 | Salmonella enterica, Salmonella Senftenberg, KUB No. 5624, AR Bank # 127, read-out: MIC | Serratia marcescens, KUB No. 5588, AR Bank # 91
0.25 µg/mL: Klebsiella pneumoniae, KUB No. 5577, AR Bank # 80 | Klebsiella pneumoniae, KUB No. 5604, AR Bank # 107 | Raoultella ornithinolvtica, KUB No. 5631, AR Bank # 134, read-out: MIC
